Measured values from PubChem BioAssay (NCI).
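Test compounds were applied to cells in 96-well plates for 48 hours at 5 doses. GI50 marks 50% less growth. The concentration for full growth arrest is given as TGI.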

Tests used:
Assay in all cases: inhibition of tumour cell growth, NCI panel, 48 h
[1] = tested on: NCI-H226 lung
[2] = tested on: SF-268 CNS
[3] = tested on: HOP-92 NSCLC
[4] = tested on: MDA-MB-231 breast
[5] = tested on: IGROV1 ovarian
[6] = tested on: OVCAR-3 ovarian
[7] = tested on: UO-31 renal
[8] = tested on: OVCAR-8 ovarian
[9] = tested on: OVCAR-5 ovarian
[10] = tested on: CAKI-1 renal

SMILES | GI50 [1] | TGI [1] | GI50 [2] | TGI [2] | GI50 [3] | TGI [3] | GI50 [4] | TGI [4] | GI50 [5] | TGI [5] | GI50 [6] | TGI [6] | GI50 [7] | TGI [7] | GI50 [8] | TGI [8] | GI50 [9] | TGI [9] | GI50 [10] | TGI [10]
C=C1C(=O)O[C@H]2[C@H]1CC/C(COC(=O)NCCc1c[nH]c3ccc(Cl)cc13)=C\CC[C@@]1(C)O[C@@H]21 | 1920 nM | 3.64 µM | 1770 nM | 3.37 µM | 1400 nM | 2.84 µM | 1840 nM | 3.44 µM | 1550 nM | 3.11 µM | 1770 nM | 3.83 µM | 1310 nM | 2.59 µM | 1600 nM | 3.26 µM | 1.97 µM | 4.19 µM | 1480 nM | 2.82 µM
Cc1cc(Cl)ccc1Nc1nc(C(F)(F)F)ccc1C(=O)N/N=C/c1ccccc1Cl | 1300 nM | 5.07 µM | 811 nM | 6.05 µM | 2140 nM | > 24.6 µM | 1130 nM | 5.53 µM | 1570 nM | > 42.2 µM | 239 nM | 2.15 µM | 1290 nM | 4.15 µM | 2160 nM | > 92.7 µM | 1.65 µM | 11.1 µM | 2820 nM | 7.72 µM
COc1cccc(/C(C)=N/NC(=O)CSc2nc3ccccc3c(=O)n2CCc2ccc(S(N)(=O)=O)cc2)c1 | 3290 nM | 13 µM | 2680 nM | 7.32 µM | 1950 nM | 11.9 µM | 2230 nM | 5.06 µM | 5090 nM | 24.4 µM | 2320 nM | 4.8 µM | 2110 nM | 6.48 µM | 2320 nM | 4.88 µM | 3.36 µM | 21 µM | 3700 nM | 15.4 µM
CNS(=O)(=O)OCC1OC(n2cnc3c(N)ncnc32)C(O)C1O (stereo not given) | > 100000 nM | > 100 µM | > 100000 nM | > 100 µM | > 100000 nM | > 100 µM | > 100000 nM | > 100 µM | > 100000 nM | > 100 µM | > 100000 nM | > 100 µM | > 100000 nM | > 100 µM | > 100000 nM | > 100 µM | > 100 µM | > 100 µM | > 100000 nM | > 100 µM
O=C(NCc1ccco1)c1cccc(NC2=C(Cl)C(=O)N(Cc3ccccc3)C2=O)c1 | 12700 nM | 62.7 µM | > 100000 nM | > 100 µM | 7910 nM | 33 µM | 17300 nM | > 100 µM | 2440 nM | 11 µM | 2440 nM | 7.71 µM | 3240 nM | 18.6 µM | 8570 nM | > 100 µM | 22.5 µM | 63.9 µM | 232 nM | 1.45 µM
CCOC(=O)c1cnn2c3ccccc3n(S(=O)(=O)c3ccc(OC)cc3)c12 | 2600 nM | > 100 µM | 2330 nM | > 100 µM | 670 nM | 16 µM | 889 nM | > 100 µM | 478 nM | > 100 µM | 181 nM | 0.493 µM | 560 nM | > 78.7 µM | 551 nM | > 100 µM | 0.558 µM | > 100 µM | 204 nM | > 83.7 µM
O=C(Nc1cc(Oc2cc(F)c(NC(=O)C3(C(=O)Nc4ccc(F)cc4)CC3)cc2F)ccn1)C1CC1 | 2530 nM | 7.98 µM | 3090 nM | > 28.5 µM | 590 nM | 5.86 µM | 2430 nM | > 100 µM | 2850 nM | 7.61 µM | 3690 nM | 13.1 µM | 2680 nM | 7.23 µM | 3250 nM | > 31.6 µM | 3.12 µM | > 100 µM | 3770 nM | > 100 µM
O=C(C[P+](c1ccccc1)(c1ccccc1)c1ccccc1)C[P+](c1ccccc1)(c1ccccc1)c1ccccc1 | 197 nM | 0.612 µM | 591 nM | 1.95 µM | 69.6 nM | 0.294 µM | 320 nM | 1.4 µM | 774 nM | 2.56 µM | 296 nM | 0.807 µM | 218 nM | 0.855 µM | 318 nM | 2.31 µM | 0.263 µM | 0.832 µM | 161 nM | 0.357 µM
Nc1ccccc1C#C/C=C\C#Cc1c(F)c(F)c(F)c(F)c1F | 11300 nM | 26.7 µM | 14100 nM | 50.9 µM | 19500 nM | 41.4 µM | 2760 nM | 16.7 µM | 10900 nM | 24.5 µM | 15300 nM | 32.9 µM | 14600 nM | 28 µM | 17100 nM | 36.7 µM | 53.4 µM | > 100 µM | 10900 nM | 29.1 µM
C[C@]12CCNC(=O)C=C1CC[C@@H]1C2CC[C@@]2(C)C1CC[C@@H]2OC(=O)COc1ccc(N(CCCl)CCCl)cc1 (stereo not given in full) |  | 28.5 µM |  | 23.8 µM |  | 23.3 µM |  | 34.8 µM |  | 33.4 µM |  | 8.25 µM |  | 18.9 µM |  | 17.8 µM |  | 29.5 µM |  | 23 µM
COc1ccc(C2C=C(c3ccc(Cl)cc3)N=C3SC=C(C)N32)c(Br)c1 (stereo not given) | 11400 nM | > 100 µM | 3170 nM | 13.1 µM | 3450 nM | 22 µM | 4720 nM | 22.1 µM | 3620 nM | 20.4 µM | 2360 nM | 5.48 µM | 3260 nM | 15.4 µM | 3320 nM | 50.7 µM | 3.12 µM | 11.2 µM | 2980 nM | 12.4 µM
Cc1c(C(N)=O)sc2c1c(=O)n(Cc1ccccc1)c1nnc(-c3ccc(Br)cc3)n21 | 2460 nM | 9.82 µM | 1400 nM | 13.4 µM | 5090 nM | 21.3 µM | 829 nM | 18.6 µM | 2150 nM | 19.2 µM | 2480 nM | 16.9 µM | 1400 nM | 11.7 µM | 2210 nM | 15 µM | 7.17 µM | 21.3 µM | 431 nM | 6.96 µM
